Measurements reported in publication PMC4859512, “Polyamino-Isoprenic Derivatives Block Intrinsic Resistance of P. aeruginosa to Doxycycline and Chloramphenicol In Vitro” (PLoS ONE, 2016).
Where two headings read alike, the source gives them in different places.

How the values were obtained:
[1] = test system: P. aeruginosa PT629 (Mex AB overproducer); experiment: Antibiotic susceptibility testing (broth micro-dilution MIC), strain PT629; format: cell-based, Pseudomonas aeruginosa; settings: Pseudomonas aeruginosa
Procedure: (§1) Experiments were performed on the BAC-SCREEN platform of the UMR-MD1, with a Freedom EVO 150 liquid handling system (Tecan, Lyon, France).
(§2) We concluded that compound 3 was the best compound and suitable for a more detailed study. The same experiment was performed using chloramphenicol (4 mg/L) in combination with 3 (10 μM final concentration). Amongst the 20 clinical isolates, the growth of 15 (75%) was impaired, while 5 (25%) were resistant (data not shown). These experiments were performed to study the effect of our compounds on the natural resistance of P. aeruginosa. In addition, we were wondering if compound 3 could also increase susceptibility to other antibiotic families including ß-Lactams, fluoroquinolones and aminoglycosides, that are representative of the main classes of anti-pseudomonal agents. Experiments were performed with the ß-lactams ceftazidime and ticarcillin and ciprofloxacin and amikacin. […] . […] To better characterize compound 3, we first searched for the minimum concentration of compound that allowed killing of bacteria by doxycycline, and PAßN was used as the reference molecule.

[2] = test system: P. aeruginosa PA0-7H (Mex EF overproducer); experiment: Antibiotic susceptibility testing (broth micro-dilution MIC), strain PA0-7H; format: cell-based, Pseudomonas aeruginosa; settings: Pseudomonas aeruginosa
Procedure: as §1, §2

P. aeruginosa PA01 (wt) = experiment: Antibiotic susceptibility testing (broth micro-dilution MIC), strain PA01; format: cell-based, Pseudomonas aeruginosa; settings: for MIC: Pseudomonas aeruginosa
Procedure: as §1
(§3) The same experiment was performed using chloramphenicol (4 mg/L) in combination with 3 (10 μM final concentration). […] These experiments were performed to study the effect of our compounds on the natural resistance of P. aeruginosa. […] Experiments were performed with the ß-lactams ceftazidime and ticarcillin and ciprofloxacin and amikacin.

[3] = test system: P. aeruginosa PA01 ERY^R (Mex CD overproducer); experiment: microbe, parasite or virus in culture; format: cell-based, Pseudomonas aeruginosa; settings: Pseudomonas aeruginosa
Procedure: as §1, §3

[4] = test system: P. aeruginosa CMZ091 (Mex XY overproducer); experiment: Antibiotic susceptibility testing (broth micro-dilution MIC), strain CMZ091; format: cell-based, Pseudomonas aeruginosa; settings: Pseudomonas aeruginosa
Procedure: as §1, §2

[5] = test system: clinical isolates of P. aeruginosa; experiment: Doxycycline MIC of the clinical isolates (S1 Table); format: cell-based; settings: Pseudomonas aeruginosa
Procedure: The P. aeruginosa strains used in this study are described in Table 1. In addition, a series of 20 clinical isolates of P. aeruginosa obtained from the Hôpital d’Instruction des Armées Laveran, HIA-Laveran (Marseille, France) were also used in this study (S1 Table). Strains were stored at -80°C in 15% (v/v) glycerol for cryo-protection. Bacteria were routinely maintained on Mueller-Hinton (MH) agar plates and grown in cation-adjusted MH broth (MHBII) at 37°C.
as §1
Isolates Sampling location Sampling date Patient age Doxycycline MIC Main antibiotic resistance
AMK, LVX, OFX, TET, MIN, TGC, CHL, NET, CAR
PA2013-LAV17 Redon drain 15/12/2012 81 32 PIP, PIP/TZP, AZT, CAZ, TIC, TCC, FEP, FOS, TET,
TIC : ticarcillin, TCC : ticarcillin/clavulanic acid, FOS : fosfomycin, TET : tetracycline, MIN, minocycline, TCG, tigecycline, CAR : carbenicillin, PIP :
piperacillin, PIP/TZP : piperacillin/tazobactam, GEN : gentamycin, CAZ : ceftazidime, FEP : cefepime, TOB : tobramycin, IPM : imipenem, CIP :
ciprofloxacin, AMK : amikacin, LVX : levofloxacin, OFX : ofloxacin, NET : netilmicin, STR, streptomycin, MEM : meropenem.

P. aeruginosa PA01 = experiment: Checkerboard assay with doxycycline; format: cell-based, Pseudomonas aeruginosa; settings: Pseudomonas aeruginosa; PA01, checkerboard plate; read-out: Doxycycline MIC (alone)
Procedure: Serial two-fold dilutions of antimicrobial agents were mixed together in a microtiter plate. The range of concentration of each drug was twice the MIC, down to the eleventh serial two-fold dilutions below this amount. Doxycycline was serially diluted along the X-axis, and the polyamino-isoprenic compound or PAßN was diluted along the Y-axis as indicated. Each well was inoculated with a bacterial inoculum of 5 x 10^5 CFU/ml, and the plates were incubated at 37°C for 18 h under aerobic conditions. Each plate also contained a row and a column in which a serial dilution of polyamino-isoprenic compound or doxycycline, respectively, was present alone to determine the MIC. The FIC index was calculated as follows: FIC index = FIC A + FIC B, where FIC A is the MIC of drug A in the combination/MIC of drug A alone and FIC B is the MIC of drug B in the combination/MIC of drug B alone. The combination was considered synergistic when the FIC index is ≤0.5, and antagonistic when the FIC index is > 4 [26].

[6] = PA01, antibiotic alone (∅), S3 Table, read-out: MIC
[7] = read-out: Minimal Inhibitory Concentration

NCC[C@H](O)C(=O)N[C@@H]1C[C@H](N)[C@@H](O[C@H]2O[C@H](CN)[C@@H](O)[C@H](O)[C@H]2O)[C@H](O)[C@H]1O[C@H]1O[C@H](CO)[C@@H](O)[C@H](N)[C@H]1O [Amikacin, amikacin]
MIC [1]: 4 µg/mL
MIC [2]: 4 µg/mL
MIC (P. aeruginosa PA01 (wt); [6]): 8 µg/mL
MIC [3]: 1 µg/mL
MIC [4]: 32 µg/mL

CC(C)(O/N=C(\C(=O)N[C@@H]1C(=O)N2C(C(=O)[O-])=C(C[n+]3ccccc3)CS[C@H]12)c1csc(N)n1)C(=O)O [Ceftazidime, ceftazidime]
MIC [1]: 8 µg/mL
MIC [2]: 1 µg/mL
MIC (P. aeruginosa PA01 (wt); [6]): 2 µg/mL

O=C(O)c1cn(C2CC2)c2cc(N3CCNCC3)c(F)cc2c1=O [Ciprofloxacin, ciprofloxacin]
MIC [1]: 0.5 to 1 µg/mL
MIC [2]: 4 µg/mL
MIC [4]: 0.5 µg/mL

CC1(C)S[C@@H]2[C@H](NC(=O)[C@H](C(=O)O)c3ccsc3)C(=O)N2[C@H]1C(=O)O [Ticarcillin, ticarcillin]
MIC [1]: > 64 µg/mL
MIC [2]: 8 µg/mL
MIC (P. aeruginosa PA01 (wt); [6]): 32 to 64 µg/mL
MIC [3]: 32 to 64 µg/mL
MIC [4]: 16 to 32 µg/mL

C[C@H]1c2cccc(O)c2C(=O)C2=C(O)[C@]3(O)C(=O)C(C(N)=O)=C(O)[C@@H](N(C)C)[C@@H]3[C@@H](O)[C@@H]21 [doxycycline]
MIC [1, 7]: > 32 µg/mL
MIC [2, 7]: > 32 µg/mL
MIC (P. aeruginosa PA01 (wt); PA01, wt, mean of 3 independent experiments, read-out: Minimal Inhibitory Concentration): 32 µg/mL
MIC ([5]; isolate PA2013-LAV01): 32 µg/mL
MIC ([5]; isolate PA2013-LAV02): 32 µg/mL
MIC ([5]; isolate PA2013-LAV03): > 32 µg/mL
MIC ([5]; isolate PA2013-LAV04): 32 µg/mL
MIC ([5]; isolate PA2013-LAV05): > 32 µg/mL
MIC ([5]; isolate PA2013-LAV06): 32 µg/mL
MIC ([5]; isolate PA2013-LAV07): 32 µg/mL
MIC ([5]; isolate PA2013-LAV08): 32 µg/mL
MIC ([5]; isolate PA2013-LAV09): > 32 µg/mL
MIC ([5]; isolate PA2013-LAV10): 32 µg/mL
MIC ([5]; isolate PA2013-LAV11): 32 µg/mL
MIC ([5]; isolate PA2013-LAV12): 32 µg/mL
MIC ([5]; isolate PA2013-LAV13): 32 µg/mL
MIC ([5]; isolate PA2013-LAV14): > 32 µg/mL
MIC ([5]; isolate PA2013-LAV15): > 32 µg/mL
MIC ([5]; isolate PA2013-LAV16): 32 µg/mL
MIC ([5]; isolate PA2013-LAV17): 32 µg/mL
MIC ([5]; isolate PA2013-LAV18): > 32 µg/mL
MIC ([5]; isolate PA2013-LAV19): 32 µg/mL
MIC ([5]; isolate PA2013-LAV20): > 32 µg/mL
MIC [3, 7]: 16 µg/mL
MIC (P. aeruginosa PA01): 32 µg/mL

polymyxin-B
Minimal Inhibitory Concentration (P. aeruginosa PA01 (wt); PA01, wt): < 10 µM
